Results published in paper PMC12876990, “Targeting secreted PLA2 interactions with EGFR and vimentin to arrest prostate tumour growth” (Cell Death & Disease, 2025).
Square brackets hold non-standard residues; d marks the D form. Peptide text beside a SMILES is read from it. 2Nal = N[C@@H](Cc1ccc2ccccc2c1)C(=O)O

Legend:
[1] = molecular target: T1, hGIIA/vimentin interaction (Homo sapiens, UniProt P08670); assay: Enzyme immunoassay of hGIIA binding to vimentin coil 2; conditions: in vitro; read-out: IC50, inhibition of the interaction between hGIIA and vimentin
T1 construct: Purified vimentin fragments (full length or coil 2) were seeded to a 96-well microplate at 15 μg/mL; hGIIA purified in house from conditioned medium of CHO cell line 2B1
Method: Prior to assay, hGIIA antibody 4A1 was conjugated to alkaline phosphatase (4A1-AP), produced using the lightning-link conjugation kit (ab102850, Abcam) as per the manufacturer’s instructions.
Purified vimentin fragments (full length or coil 2) were seeded to a 96-well microplate at 15 μg/mL with a 100 μL/well volume. After an overnight incubation at 4 °C, the plate was emptied. Each well was then blocked overnight at 4 °C with 200 μL of 1% BSA in PBS. The plate was emptied and washed with PBST (PBS + 0.05% Tween20). hGIIA solution of 100 ng/mL in PBS with 0.1% BSA was prepared with and without inhibitors c2, Withaferin A and LY311727 in DMSO with concentrations 0.1-100 µM. hGIIA working solution with 0.4% DMSO served as a positive control and PBS with 0.1% BSA served as a negative control. A 100 μL volume of each prepared hGIIA-inhibitor mixture was added to wells in triplicate and incubated at 37 °C for two hours. The plate was washed twice with PBST, then incubated with the 4A1-AP conjugate at 1 μg/mL 0.1% BSA in PBS and incubated for one hour at 37 °C. Plates were then emptied and washed three times with PBST, followed by washing twice with carbonate buffer (8 mM Na2CO3, 36 mM NaHCO3, 2 mM MgCl2, pH 9.8), before incubation with AP substrate p-nitro-phenyl phosphate (PNPP) powder at 1 mg/mL concentration in carbonate buffer. The plate was incubated at 37 °C for 60 mins then absorbance was read at 405 nm by a Spectramax M2 plate reader. All washes were a 200 µL/well volume.

[2] = 28-day oral toxicity study: gross necropsy and organ weights; assay type: in vivo, male Sprague Dawley rats; conditions: for Heart weight on Necropsy: n = 10, mean ± SD
Method: The observations were recorded in the form of a sp readsheet and attached as an app endix to the report (Appendix C Study Data Spreadsheets). […]
Haematology and Biochemistry). […]
(Appendix C Study Data Spreadsheets).
Following sacrifice by intraperitoneal injection of sodium pentobarbitone a gros s necrop sy wa s performed. This included determination of the wet weight of the liver, kidneys, adrenals, testes, spleen, thymus, heart, epididymis, prostate + semi nal vesicle s with coagulating glands as whole […]
and brain. […]
Tissues and carcas ses were placed in 10% formalin. The tissues to be processed for histopathological examinations were fixed for at least 48 hours prior to cassette preparation. […]
Slides were […]
evaluated for histology change s under light microscopy at a magnification of 100 to 1000 times.
Individual histopathology results and a summar y are attached a s an app endix to the report (Appendix E Histopathology).
3.14. Statistical analyses
Clinical observations, detailed clinical observations, functional observations, blood and urine analyses and histopathology were summarised by descriptive analysis.
Statistical analyses, consisting of unpaired t-tests, were performed on measured variables: percentage body weight gain s, food consumption and organ weights as a percentage of body weight. A significance level of P < 0.05 was used for all tests.

[3] = system: PCa cell lines LNCaP, PC-3 and DU145; assay: Cell permeability of c2 by live cell confocal imaging of its autofluorescence; assay type: cell-based; conditions: 100 µM, 24 hours
Method: The naphthyl groups in the structure of c2 give the compound a unique autofluorescence emission spectral signature, which was characterised (Fig. S3a, b), allowing the direct imaging of c2 internalisation and localisation. […] Internalisation confirmed via z-stack (Fig. S3c).
For all live cell imaging, cells were seeded on a 24-well glass-bottom Senso plates (Greiner Bio-one) and imaged at 37 °C and 5% CO2 with the LSM 800 (Zeiss). For c2 imaging, cells were incubated with c2 100 µM for 24 hours before excitation with 488 nm and emission 500-700 nm detected. For hGIIA entry, PC-3, LNCaP, DU145 and RA57 hGIIA/AF647 in cells were stained with 30 nM DAPI for 10 mins, cells were washed with PBS and then stained with 1 μg/mL of propidium iodide for 10 mins to confirm cell viability. Cells were washed three times with PBS and then cells were incubated with 200 ng/mL hGIIA/AF647, with entry imaged over 16 hours. Imaging parameters were kept consistent across all time points and cell lines.

[4] = 28-day oral toxicity study: daily clinical observations; assay type: in vivo, male Sprague Dawley rats; parameters: key to Clinical observations: NC A, no clinical abnormalities
Method: 3.6. Procedure for test item administration […]
intragastric cannula attached to a 3 mL syringe.
3.7. Observation of animals […]
groups: Day 29; recovery groups: Day 43).
(Appendix C Study Data Spreadsheets). […]
report (Appendix C Study Data Spreadsheets).
3.7.3. Clinical observations […]
groups and on the day of sa crifice. […]
and abnormal behaviour. Skin and fur, eyes and mucous membranes, respiratory, […]
patterns were monitored. Particular attention was paid to observation of tremor, convulsion, salivation, diarrhoea, lethargy, sleep and coma.
3.7.4. Detailed clinical examinations […]
the report (Appendix C Study Data Spreadsheets). […]

[5] = rat, in vivo, 20 mg/kg
Method: (§1) The calculated volumetric do se wa s administered to each rat orally by gav age, using a plastic
(§2) Two dose level s of 1 and 20 mg/kg of the te st it em susp ension were administered to each rat
(§3) every 3 days (total 10 do ses) for 28 days. This c orresponded to volumetric dose of 10.09 and
(§4) 10.23 mL/kg. The volumetric dose administered to each animal was calculated on Days 1, 8, 15
(§5) Feed consumption was monitored weekly over the 28-day experimental period in all groups
(§6) and was continued for a further 2 weeks in the recovery groups (42-day experimental
(§7) period). Feed intake was monitored by providing a known mass of feed to each cage and
(§8) subtracting the mas s remaining at the end of th e weekly period. Animals were fa sted
(§9) overnight on either Day 28 (main groups) or Day 42 (recovery groups).

[6] = 28-day oral toxicity study: feed consumption
Method: as §1, §2, §3, §4, §5, §6, §7, §8, §9

[7] = Day 43, Gr 5 recovery, 20 mg/kg

T1 sequence (P08670 269-407 limits assumed): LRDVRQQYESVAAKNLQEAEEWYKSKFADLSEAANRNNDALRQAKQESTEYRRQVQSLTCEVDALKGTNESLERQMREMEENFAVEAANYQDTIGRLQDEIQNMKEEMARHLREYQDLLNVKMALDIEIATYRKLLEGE

Question: For `CC(C)C[C@@H]1NC(=O)[C@H](Cc2ccc3ccccc3c2)NC(=O)[C@H](CCCNC(=N)N)NC(=O)[C@H](Cc2ccc3ccccc3c2)NC(=O)[C@H](CO)NC1=O` [c2, cyclo-((2-Nal)-Leu-Ser-(2-Nal)-Arg)] (cyclo([2Nal]LS[2Nal]R)), which IC50 [1] is on record?
Answer: 56.5 µM

Question: What about the “Heart weight (% body weight)” value ([2]; 1 mg/kg) of the same compound?
Answer: 0.31 ± 0.026 % body weight

Question: What about the “Heart weight on Necropsy” value ([2]; 1 mg/kg) of the same compound?
Answer: 1.211 ± 0.1348 g

Question: What about the “Heart weight (% body weight)” value ([2]; 20 mg/kg) of the same compound?
Answer: 0.34 ± 0.025 % body weight

Question: And the “Heart weight on Necropsy” value ([2]; 20 mg/kg)?
Answer: 1.322 ± 0.1050 g

Question: What about the “Organ weight: Adrenals” value ([2]; Day 29, Gr 2, 1 mg/kg) of the same compound?
Answer: 0.0454 ± 0.00783 g

Question: And the “Organ weight: Spleen” value ([2]; Day 29, Gr 2, 1 mg/kg)?
Answer: 0.8031 ± 0.0637 g

Question: What about the “effect on organ weights as a percentage of body weight” value ([2]; Day 29, Gr 2, 1 mg/kg) of the same compound?
Answer: did not have any effect

Question: What about the “macroscopic changes at necropsy” value ([2]; Day 29, Gr 2, 1 mg/kg) of the same compound?
Answer: No gross abnormalities

Question: What about the “Organ weight: Adrenals” value ([2]; Day 29, Gr 3, 20 mg/kg) of the same compound?
Answer: 0.0473 ± 0.00889 g

Question: And the “effect on organ weights as a percentage of body weight” value ([2]; Day 29, Gr 3, 20 mg/kg)?
Answer: did not have any effect

Question: And the “macroscopic changes at necropsy” value ([2]; Day 29, Gr 3, 20 mg/kg)?
Answer: No gross abnormalities

Question: And the “Organ weight (% body weight): Adrenals” value [2, 7]?
Answer: 0.0097 ± 0.00158%

Question: And the “Organ weight: Adrenals” value [2, 7]?
Answer: 0.0443 ± 0.0061 g

Question: What about the “effect on organ weights as a percentage of body weight” value [2, 7] of the same compound?
Answer: did not have any effect

Question: What about the “macroscopic changes at necropsy” value [2, 7] of the same compound?
Answer: No gross abnormalities

Question: What about the “c2 detection in cells” value [3] of the same compound?
Answer: detected in all cell lines

Question: What about the clinical signs ([4]; 1 and 20 mg/kg) of the same compound?
Answer: did not have an adverse effect

Question: What about the Clinical observations ([4]; Day 1-7, Gr 2, 1 mg/kg) of the same compound?
Answer: NC A

Question: And the Clinical observations ([4]; Day 1-7, Gr 3, 20 mg/kg)?
Answer: NC A

Question: What about the Clinical observations ([4]; Day 1-7, Gr 5 recovery, 20 mg/kg) of the same compound?
Answer: NC A

Question: What about the Clinical observations ([4]; Day 8-14, Gr 2, 1 mg/kg) of the same compound?
Answer: NC A

Question: And the Clinical observations ([4]; Day 8-14, Gr 3, 20 mg/kg)?
Answer: NC A

Question: And the Clinical observations ([4]; Day 8-14, Gr 5 recovery, 20 mg/kg)?
Answer: NC A

Question: What about the Clinical observations ([4]; Day 15-21, Gr 2, 1 mg/kg) of the same compound?
Answer: NC A

Question: And the Clinical observations ([4]; Day 15-21, Gr 3, 20 mg/kg)?
Answer: NC A

Question: What about the Clinical observations ([4]; Day 15-21, Gr 5 recovery, 20 mg/kg) of the same compound?
Answer: NC A

Question: And the Clinical observations ([4]; Day 22-28, Gr 2, 1 mg/kg)?
Answer: NC A

Question: And the Clinical observations ([4]; Day 22-28, Gr 3, 20 mg/kg)?
Answer: NC A

Question: And the Clinical observations ([4]; Day 22-28, Gr 5 recovery, 20 mg/kg)?
Answer: NC A

Question: What about the Clinical observations ([4]; Day 29-35, Gr 5 recovery, 20 mg/kg) of the same compound?
Answer: NC A

Question: What about the Clinical observations ([4]; Day 36-43, Gr 5 recovery, 20 mg/kg) of the same compound?
Answer: NC A

Question: What about the Mean feed intake/cage [5] of the same compound?
Answer: 5180 g

Question: And the “feed intake vs control” value ([6]; 28-day and 42-day experimental period)?
Answer: similar

Question: What about the Mean feed intake/cage/week ([6]; Week 1, Gr 2, 1 mg/kg, 5 animals/cage) of the same compound?
Answer: 801 ± 26.9 g

Question: And the Mean feed intake/cage/week ([6]; Week 1, Grs 3 & 5, 20 mg/kg)?
Answer: 819 ± 55.4 g

Question: What about the Mean feed intake/cage/week ([6]; Week 2, Gr 2, 1 mg/kg) of the same compound?
Answer: 839 ± 12.0 g

Question: And the Mean feed intake/cage/week ([6]; Week 2, Grs 3 & 5, 20 mg/kg)?
Answer: 877 ± 45.1 g

Question: What about the Mean feed intake/cage/week ([6]; Week 3, Gr 2, 1 mg/kg) of the same compound?
Answer: 845 ± 0 g

Question: What about the Mean feed intake/cage/week ([6]; Week 3, Grs 3 & 5, 20 mg/kg) of the same compound?
Answer: 916 ± 35.2 g

Question: And the Mean feed intake/cage/week ([6]; Week 4, Grs 3 & 5, 20 mg/kg)?
Answer: 815 ± 42.0 g

Question: And the Mean feed intake/cage/week ([6]; Week 5, Gr 5 recovery, 20 mg/kg)?
Answer: 1013 g

Question: What about the Mean feed intake/cage/week ([6]; Week 6, Gr 5 recovery, 20 mg/kg) of the same compound?
Answer: 802 g

Question: And the Mean feed intake/cage/week ([6]; week 4, Gr 2, 1 mg/kg)?
Answer: 775 ± 27.6 g
